Test systems include NCI-H226 lung; DU-145 prostate; HOP-92 NSCLC; HCC-2998 colon; T-47D breast; PC-3 prostate; MALME-3M melanoma; OVCAR-3 ovarian; LOX IMVI melanoma; HCT-116 colon; HS 578T breast; CCRF-CEM leukemia; NCI/ADR-RES ovarian; CAKI-1 renal; HT29 colon; MOLT-4 leukemia; TK-10 renal; MCF7 breast; HL-60(TB) leukemia; NCI-H522 lung.
Common to all, as to assay: inhibition of tumour cell growth, NCI panel, 48 h

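The compound was tested at five concentrations on cells cultured in 96-well plates, with a 48-hour exposure period. The concentration for full growth arrest is given as TGI.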

As to `CC(=O)N1C(Nc2nccs2)CCN1c1ccccc1` (stereo unspecified), the TGI in the assay with NCI-H226 lung, with DU-145 prostate, with HOP-92 NSCLC, with HCC-2998 colon, in the assay on T-47D breast and in the assay with PC-3 prostate was greater than 10 µM throughout. For the same compound, the TGI in the assay with MALME-3M melanoma, in the assay with OVCAR-3 ovarian, with LOX IMVI melanoma, with HCT-116 colon, with HS 578T breast and with CCRF-CEM leukemia was greater than 10 µM each time. The TGI in the assay with NCI/ADR-RES ovarian, in the assay on CAKI-1 renal, with HT29 colon, with MOLT-4 leukemia, in the assay on TK-10 renal and in the assay on MCF7 breast was greater than 10 µM in each case. In the assay with HL-60(TB) leukemia, this compound yielded a TGI greater than 10 µM.
As for `Cc1cn(C2CC(N=[N+]=[N-])C(COP(=O)(O)OCC3OC(n4cc(F)c(=O)[nH]c4=O)CC3O)O2)c(=O)[nH]c1=O` (stereo unspecified), the TGI with NCI-H226 lung is greater than 100 µM; in the assay with DU-145 prostate, greater than 100 µM; with HCC-2998 colon it was greater than 100 µM; with T-47D breast it was greater than 100 µM; in the assay on PC-3 prostate it was greater than 100 µM; with MALME-3M melanoma, greater than 20.2 µM. Moreover, the TGI with OVCAR-3 ovarian is greater than 100 µM; in the assay on LOX IMVI melanoma, greater than 100 µM; with HCT-116 colon, greater than 100 µM; in the assay with HS 578T breast it was greater than 100 µM; in the assay with CCRF-CEM leukemia it was greater than 100 µM; with NCI/ADR-RES ovarian, greater than 24.6 µM. The TGI in the assay with CAKI-1 renal is greater than 100 µM; in the assay on HT29 colon it was greater than 100 µM; with MOLT-4 leukemia, greater than 37.2 µM; in the assay on TK-10 renal, greater than 100 µM; in the assay on NCI-H522 lung, greater than 100 µM; in the assay on MCF7 breast, greater than 100 µM. In the assay with HL-60(TB) leukemia, this compound came in with a TGI greater than 100 µM.
For the compound `O=C(Nc1ccccc1)OCCN=C1c2ccccc2CCc2ccccc21`, the TGI turned out to be 55 µM in the assay with NCI-H226 lung; 91.3 µM with DU-145 prostate; 45.9 µM in the assay on HCC-2998 colon; 45 µM in the assay on T-47D breast; 82.8 µM in the assay on PC-3 prostate; 57.9 µM in the assay on MALME-3M melanoma. Further, the TGI in the assay on OVCAR-3 ovarian worked out at 44.3 µM; in the assay with LOX IMVI melanoma, 49.4 µM; in the assay on HCT-116 colon it was 30 µM; in the assay on HS 578T breast, 51.5 µM; with CCRF-CEM leukemia, 55.7 µM; in the assay with NCI/ADR-RES ovarian, 72.4 µM. In addition, the TGI in the assay with CAKI-1 renal is 88 µM; in the assay on HT29 colon, 37 µM; in the assay on MOLT-4 leukemia it was 31.1 µM; in the assay with TK-10 renal it was greater than 100 µM; in the assay with MCF7 breast, 57.8 µM; in the assay with HL-60(TB) leukemia, 42.2 µM.
Consider `CCOC(=O)c1c[nH]c(C(=O)C=[N+]=[N-])c1C1CCN(CC)C1=S` (stereo unspecified), for which the TGI in the assay on DU-145 prostate, in the assay with HOP-92 NSCLC, with HCC-2998 colon, in the assay on T-47D breast, in the assay on PC-3 prostate and in the assay with MALME-3M melanoma was greater than 100 µM throughout. Besides, the TGI with OVCAR-3 ovarian, in the assay with HCT-116 colon, in the assay on HS 578T breast, with NCI/ADR-RES ovarian, in the assay with CAKI-1 renal and in the assay with HT29 colon was greater than 100 µM throughout. The TGI with MOLT-4 leukemia, with TK-10 renal, in the assay on NCI-H522 lung and with MCF7 breast was greater than 100 µM each time.
As for `NC(=O)[N+](=CC(=S)Nc1ccccc1Cl)C(N)=O`, the TGI with NCI-H226 lung, in the assay with DU-145 prostate, in the assay with HOP-92 NSCLC, with HCC-2998 colon, with T-47D breast and with PC-3 prostate was greater than 100 µM each time. The TGI with OVCAR-3 ovarian, in the assay with LOX IMVI melanoma, in the assay on HCT-116 colon, in the assay on HS 578T breast, in the assay with CCRF-CEM leukemia and in the assay with NCI/ADR-RES ovarian was greater than 100 µM in each case. Further, the TGI in the assay with CAKI-1 renal, in the assay on HT29 colon, with MOLT-4 leukemia, with TK-10 renal, with NCI-H522 lung and with MCF7 breast was greater than 100 µM each time. In the assay with HL-60(TB) leukemia, the TGI was greater than 100 µM.
With `Cn1nnc2c3c(N(CCO)CCO)ccnc3ccc21`, the TGI in the assay on DU-145 prostate was greater than 100 µM; with HCC-2998 colon, 91.2 µM; in the assay with T-47D breast, greater than 100 µM; in the assay with PC-3 prostate, greater than 100 µM; in the assay with MALME-3M melanoma it was greater than 100 µM; in the assay on OVCAR-3 ovarian, greater than 100 µM. In addition, the TGI with LOX IMVI melanoma, in the assay with HCT-116 colon, with HS 578T breast, with CCRF-CEM leukemia, in the assay on NCI/ADR-RES ovarian and in the assay with CAKI-1 renal was greater than 100 µM each time. The TGI in the assay on HT29 colon, in the assay on MOLT-4 leukemia, with TK-10 renal and in the assay with MCF7 breast was greater than 100 µM in each case.
With `CC(C)[C@H]1NC(=O)[C@H]2N=C(S[C@H]2C)[C@@H]2CCCN2C(=O)[C@H](Cc2ccccc2)NC(=O)[C@@H]2CSC(=N2)[C@@H](Cc2ccccc2)NC(=O)[C@@H]2CSC1=N2`, the TGI is greater than 50 µM in the assay with NCI-H226 lung; greater than 50 µM in the assay with DU-145 prostate; 28.2 µM in the assay with HCC-2998 colon; greater than 50 µM with T-47D breast; greater than 50 µM in the assay on PC-3 prostate; greater than 50 µM in the assay on MALME-3M melanoma. Moreover, the TGI is greater than 50 µM with OVCAR-3 ovarian; greater than 50 µM in the assay on LOX IMVI melanoma; greater than 50 µM in the assay on HCT-116 colon; 47 µM in the assay on HS 578T breast; 46.4 µM with CCRF-CEM leukemia; greater than 50 µM with NCI/ADR-RES ovarian. For the same compound, the TGI in the assay on CAKI-1 renal is greater than 50 µM; with HT29 colon, greater than 50 µM; in the assay on MOLT-4 leukemia it was 29.5 µM; with TK-10 renal, greater than 50 µM; with NCI-H522 lung, 45 µM; with MCF7 breast it was greater than 50 µM. The compound also showed a TGI in the assay with HL-60(TB) leukemia of 16.3 µM.

The values above are taken from PubChem BioAssay (NCI).
